Assay [1] has as its target WT NA (neuraminidase of pandemic H1N1 virus A/California/07/2009) (Influenza A virus (A/California/07/2009(H1N1)), UniProt C3W6G3). The assay can be described thus: fluorescence NA inhibition assay (NA-Fluor, MUNANA). It counts as biochemical. Conditions: MUNANA substrate; 30 min preincubation, 60 min reaction, 37 °C; whole virus 10^6 PFU/mL; ethyl ester prodrug tested as such.

Assay [2] shares this target. The experiment in a line: fluorescence NA activity assay (ex […] nm, em […] nm). Type of assay: biochemical. The note with it: 37 °C, 60 min; whole virus.

Regarding `CCOC(=O)C1=C[C@@H](OC(CC)CC)[C@H](NC(C)=O)[C@@H](N)C1` [compound 3, oseltamivir phosphate], the “relative NA activity” value in assay [1] is “increase in oseltamivir phosphate concentration was accompanied by its binding to WT NA and inhibition”.

As to `CC(=O)N[C@H]1[C@H]([C@H](O)[C@H](O)CO)O[C@@](Oc2ccc3c(C)cc(=O)oc3c2)(C(=O)O)C[C@@H]1O` [2-(4-methylumbelliferyl)-a-D-N-acetylneuraminic acid], the “fluorescence NA activity assay (ex 360 nm, em 450 nm)” value in assay [2] was “(MUNANA) was used as the fluorescent substrate to determine the NA enzymatic parameters”.

For the origin of these results see PMC6115449, “Rapid and simple detection of Tamiflu-resistant influenza virus: Development of oseltamivir derivative-based lateral flow biosensor for point-of-care (POC) diagnostics” (Scientific Reports, 2018).
